Results: ChEMBL document CHEMBL1147116 (Antimicrob Agents Chemother, 2007)
Values after ≈ are worked out from the molar mass of the structure shown.

How the values were obtained:
Streptococcus pneumoniae [1] = test: Susceptibility of Streptococcus pneumoniae ATCC 49619 by microdilution method; format: functional
[2] = Peak free concentration at 500 mg/24 hrs regimen in vitro PK model; format: ADME
[3] = Peak free concentration at 750 mg/24 hrs regimen in vitro PK model; format: ADME
[4] = Peak free concentration at 812.5 mg/24 hrs regimen in vitro PK model; format: ADME
[5] = Peak free concentration at 875 mg/24 hrs regimen in vitro PK model; format: ADME
[6] = Peak free concentration at 1000 mg/24 hrs regimen in vitro PK model; format: ADME
[7] = Half life at 500 mg/24 hrs regimen in vitro PK model; format: ADME
[8] = Half life at 750 mg/24 hrs regimen in vitro PK model; format: ADME
[9] = Half life at 812.5 mg/24 hrs regimen in vitro PK model; format: ADME
[10] = Half life at 875 mg/24 hrs regimen in vitro PK model; format: ADME
[11] = Half life at 1000 mg/24 hrs regimen in vitro PK model; format: ADME
[12] = Peak free concentration at 843.5 mg/24 hrs regimen in vitro PK model; format: ADME
[13] = Half life at 843.5 mg/24 hrs regimen in vitro PK model; format: ADME
Streptococcus pneumoniae [14] = test: Susceptibility of Streptococcus pneumoniae BSP-2443 by microdilution method; format: functional; conditions: BSP2443
Streptococcus pneumoniae [15] = test: microbe, parasite or virus in culture; conditions: Staphylococcus aureus, ATCC 49619, 24 h
Streptococcus pneumoniae [16] = test: microbe, parasite or virus in culture; conditions: Staphylococcus aureus, ATCC 49619
Streptococcus pneumoniae [17] = test: microbe, parasite or virus in culture; conditions: Staphylococcus aureus, ATCC 49619, 24 h; remark: listed apart in the source
Streptococcus pneumoniae [18] = test: microbe, parasite or virus in culture; conditions: Staphylococcus aureus, ATCC 49619; remark: listed apart in the source
Streptococcus pneumoniae [19] = test: microbe, parasite or virus in culture; conditions: Staphylococcus aureus, ATCC 49619, 24 h; remark: listed apart in the source
Streptococcus pneumoniae [20] = test: microbe, parasite or virus in culture; conditions: Staphylococcus aureus, ATCC 49619; remark: listed apart in the source
Streptococcus pneumoniae [21] = test: microbe, parasite or virus in culture; conditions: Staphylococcus aureus, ATCC 49619; remark: listed apart in the source
Streptococcus pneumoniae [22] = test: microbe, parasite or virus in culture; conditions: Staphylococcus aureus, ATCC 49619; remark: listed apart in the source
Streptococcus pneumoniae [23] = test: microbe, parasite or virus in culture; conditions: Staphylococcus aureus, ATCC 49619; remark: listed apart in the source
Streptococcus pneumoniae [24] = test: microbe, parasite or virus in culture; conditions: Staphylococcus aureus, BSP2443
Streptococcus pneumoniae [25] = test: microbe, parasite or virus in culture; conditions: Staphylococcus aureus, BSP2443, 96 h
Streptococcus pneumoniae [26] = test: microbe, parasite or virus in culture; conditions: Staphylococcus aureus, BSP2443; remark: listed apart in the source
Streptococcus pneumoniae [27] = test: microbe, parasite or virus in culture; conditions: Staphylococcus aureus, BSP2443; remark: listed apart in the source
Streptococcus pneumoniae [28] = test: microbe, parasite or virus in culture; conditions: Staphylococcus aureus, BSP2443, 96 h; remark: listed apart in the source
Streptococcus pneumoniae [29] = test: microbe, parasite or virus in culture; conditions: Staphylococcus aureus, BSP2443; remark: listed apart in the source
Streptococcus pneumoniae [30] = test: microbe, parasite or virus in culture; conditions: Staphylococcus aureus, BSP2443; remark: listed apart in the source
Streptococcus pneumoniae [31] = test: microbe, parasite or virus in culture; conditions: Staphylococcus aureus, BSP2443; remark: listed apart in the source
Streptococcus pneumoniae [32] = test: fAUC/MIC ratio of Streptococcus pneumoniae BSP-2443 at 750 mg
Streptococcus pneumoniae [33] = test: fAUC/MIC ratio of Streptococcus pneumoniae BSP-2443 at 875 mg
Streptococcus pneumoniae [34] = test: fAUC/MIC ratio of Streptococcus pneumoniae BSP-2443 at 1000 mg
Streptococcus pneumoniae [35] = test: fAUC/MIC ratio of Streptococcus pneumoniae ATCC 49610 at 500 mg
Streptococcus pneumoniae [36] = test: fAUC/MIC ratio of Streptococcus pneumoniae ATCC 49610 at 750 mg
Streptococcus pneumoniae [37] = test: fAUC/MIC ratio of Streptococcus pneumoniae ATCC 49610 at 875 mg
Streptococcus pneumoniae [38] = test: fAUC/MIC ratio of Streptococcus pneumoniae BSP-2443 at 812.5 mg
Streptococcus pneumoniae [39] = test: fAUC/MIC ratio of Streptococcus pneumoniae BSP-2443 at 843.5 mg
Streptococcus pneumoniae [40] = test: fAUC/MIC ratio of Streptococcus pneumoniae BSP-2443 at 937.5 mg
Streptococcus pneumoniae [41] = test: fAUC/MIC ratio of Streptococcus pneumoniae ATCC 49610 at 1000 mg
Streptococcus pneumoniae [42] = test: fAUC/MIC ratio of Streptococcus pneumoniae ATCC 49610 at 812.5 mg
Streptococcus pneumoniae [43] = test: fAUC/MIC ratio of Streptococcus pneumoniae ATCC 49610 at 843.5 mg
[44] = Peak free concentration at 200 mg/24 hrs regimen in vitro PK model; format: ADME
[45] = Peak free concentration at 400 mg/24 hrs regimen in vitro PK model; format: ADME
[46] = Peak free concentration at 50 mg/24 hrs regimen in vitro PK model; format: ADME
[47] = Peak free concentration at 75 mg/24 hrs regimen in vitro PK model; format: ADME
[48] = Peak free concentration at 100 mg/24 hrs regimen in vitro PK model; format: ADME
Staphylococcus aureus [49] = test: Bactericidal activity against Staphylococcus aureus ATCC 49619 at fAUC/MIC of […] after 72 hrs in pharmacodynamic model; format: functional; conditions: ATCC 49619, 72 h
Staphylococcus aureus [50] = test: Bactericidal activity against Staphylococcus aureus ATCC 49619 at fAUC/MIC of […] after 96 hrs in pharmacodynamic model; format: functional; conditions: ATCC 49619, 96 h
Streptococcus pneumoniae [51] = test: microbe, parasite or virus in culture; conditions: Staphylococcus aureus, ATCC 49619; remark: listed apart in the source
Streptococcus pneumoniae [52] = test: microbe, parasite or virus in culture; conditions: Staphylococcus aureus, ATCC 49619; remark: listed apart in the source
Streptococcus pneumoniae [53] = test: microbe, parasite or virus in culture; conditions: Staphylococcus aureus, ATCC 49619; remark: listed apart in the source
Streptococcus pneumoniae [54] = test: microbe, parasite or virus in culture; conditions: Staphylococcus aureus, ATCC 49619; remark: listed apart in the source
Streptococcus pneumoniae [55] = test: microbe, parasite or virus in culture; conditions: Staphylococcus aureus, ATCC 49619; remark: listed apart in the source
Streptococcus pneumoniae [56] = test: microbe, parasite or virus in culture; conditions: Staphylococcus aureus, BSP2443; remark: listed apart in the source
Streptococcus pneumoniae [57] = test: microbe, parasite or virus in culture; conditions: Staphylococcus aureus, BSP2443; remark: listed apart in the source
Streptococcus pneumoniae [58] = test: microbe, parasite or virus in culture; conditions: Staphylococcus aureus, BSP2443; remark: listed apart in the source
Streptococcus pneumoniae [59] = test: microbe, parasite or virus in culture; conditions: Staphylococcus aureus, BSP2443, 72 h
Streptococcus pneumoniae [60] = test: microbe, parasite or virus in culture; conditions: Staphylococcus aureus, BSP2443, 96 h; remark: listed apart in the source
Streptococcus pneumoniae [61] = test: Bactericidal activity against Streptococcus pneumoniae BSP-2443 with parC S52G, N91D mutation and gyrA S114G mutation at fAUC/MIC of 24 after 96 hrs in pharmacodynamic model; conditions: BSP2443, 96 h
Streptococcus pneumoniae [62] = test: Bactericidal activity against Streptococcus pneumoniae BSP-2443 with parC S52G, N91D mutation and gyrA S114G mutation at fAUC/MIC of 24 after 72 hrs in pharmacodynamic model; conditions: BSP2443, 72 h

C[C@H]1COc2c(N3CCN(C)CC3)c(F)cc3c(=O)c(C(=O)O)cn1c23.C[C@H]1COc2c(N3CCN(C)CC3)c(F)cc3c(=O)c(C(=O)O)cn1c23.O [LEVOFLOXACIN]
MIC (Streptococcus pneumoniae [1]): 0.025 µg/mL | Activity [2]: 4.1 µg/mL | Activity [3]: 6.13 µg/mL | Activity [4]: 6.78 µg/mL | Activity [5]: 7.19 µg/mL | Activity [6]: 8.75 µg/mL | half-life [7]: 8.01 h | half-life [8]: 7.52 h | half-life [9]: 7.06 h | half-life [10]: 8.02 h | half-life [11]: 7.85 h | Activity [12]: 7.09 µg/mL | half-life [13]: 6.98 h | MIC (Streptococcus pneumoniae [14]): 0.025 µg/mL | MIC (Streptococcus pneumoniae [15]): 1.5 µg/mL | MIC (Streptococcus pneumoniae [16]): > 32 µg/mL | MIC (Streptococcus pneumoniae [17]): 0.75 µg/mL | MIC (Streptococcus pneumoniae [18]): > 32 µg/mL | MIC (Streptococcus pneumoniae [19]): 1.5 µg/mL | MIC (Streptococcus pneumoniae [20]): > 32 µg/mL | MIC (Streptococcus pneumoniae [21]): 0.75 µg/mL | MIC (Streptococcus pneumoniae [22]): 0.75 µg/mL | MIC (Streptococcus pneumoniae [23]): 0.75 µg/mL | MIC (Streptococcus pneumoniae [24]): > 32 µg/mL | MIC (Streptococcus pneumoniae [25]): 2 µg/mL | MIC (Streptococcus pneumoniae [26]): 0.75 µg/mL | MIC (Streptococcus pneumoniae [27]): 0.75 µg/mL | MIC (Streptococcus pneumoniae [28]): > 32 µg/mL | MIC (Streptococcus pneumoniae [29]): 0.75 µg/mL | MIC (Streptococcus pneumoniae [30]): 0.75 µg/mL | MIC (Streptococcus pneumoniae [31]): 0.75 µg/mL | fAUC/MIC (Streptococcus pneumoniae [32]): 75 | fAUC/MIC (Streptococcus pneumoniae [33]): 94 | fAUC/MIC (Streptococcus pneumoniae [34]): 117 | fAUC/MIC (Streptococcus pneumoniae [35]): 55 | fAUC/MIC (Streptococcus pneumoniae [36]): 79 | fAUC/MIC (Streptococcus pneumoniae [37]): 97 | fAUC/MIC (Streptococcus pneumoniae [38]): 83 | fAUC/MIC (Streptococcus pneumoniae [39]): 86 | fAUC/MIC (Streptococcus pneumoniae [40]): 104 | fAUC/MIC (Streptococcus pneumoniae [41]): 114 | fAUC/MIC (Streptococcus pneumoniae [42]): 82 | fAUC/MIC (Streptococcus pneumoniae [43]): 89

COc1c(N2C[C@@H]3CCCN[C@@H]3C2)c(F)cc2c(=O)c(C(=O)O)cn(C3CC3)c12 [MOXIFLOXACIN]
MIC (Streptococcus pneumoniae [1]): 0.025 µg/mL (≈ 0.0623 µM) | Activity [44]: 1.1 µg/mL | Activity [45]: 2.48 µg/mL | Activity [46]: 0.3 µg/mL | Activity [47]: 0.45 µg/mL | Activity [48]: 0.6 µg/mL | MIC (Streptococcus pneumoniae [14]): 0.025 µg/mL (≈ 0.0623 µM) | MIC (Staphylococcus aureus [49]): 0.19 µg/mL (≈ 0.473 µM) | MIC (Staphylococcus aureus [50]): 0.75 µg/mL (≈ 1.87 µM) | MIC (Streptococcus pneumoniae [51]): 0.125 µg/mL (≈ 0.311 µM) | MIC (Streptococcus pneumoniae [52]): 0.125 µg/mL (≈ 0.311 µM) | MIC (Streptococcus pneumoniae [53]): 0.125 µg/mL (≈ 0.311 µM) | MIC (Streptococcus pneumoniae [54]): 0.125 µg/mL (≈ 0.311 µM) | MIC (Streptococcus pneumoniae [55]): 0.125 µg/mL (≈ 0.311 µM) | MIC (Streptococcus pneumoniae [56]): 0.25 µg/mL (≈ 0.623 µM) | MIC (Streptococcus pneumoniae [57]): 0.25 µg/mL (≈ 0.623 µM) | MIC (Streptococcus pneumoniae [58]): 0.25 µg/mL (≈ 0.623 µM) | MIC (Streptococcus pneumoniae [59]): 4 µg/mL (≈ 9.96 µM) | MIC (Streptococcus pneumoniae [60]): 4 µg/mL (≈ 9.96 µM) | MIC (Streptococcus pneumoniae [61]): 1.5 µg/mL | MIC (Streptococcus pneumoniae [62]): 0.38 µg/mL
